The values below are quoted from earlier work in patent US9034914B2, “Pharmaceutical composition comprising rotigotine salts (acid or Na), especially for iontophoresis” (UCB Pharma GmbH, priority 2009, dated 2015).

For orientation: Solubility means how much of the substance goes into solution per volume.

Structures can show the parent of a compound that is named as a salt. Where two headings read alike, the source gives them in different places. Marks after values point to notes of the source that are not given here.

The conditions of data set [1]: passive delivery, patch size 10 cm^2, estimated to deliver 2 mg in 24 h; cited from earlier work.
The conditions of data set [2]: 20 cm^2 patch containing 10 mg rotigotine hydrochloride, TTS of WO 94/07468; cited from earlier work.
For data set [3] the following is noted: cited from earlier work; for Solubility: adapted from Nugroho et al.
For data set [4] the following is noted: pH 5; cited from earlier work.

Turning to `CCCN(CCc1cccs1)[C@H]1CCc2c(O)cccc2C1` [rotigotine, (−)-5,6,7,8-tetrahydro-6-[propyl-[2-(2-thienyl)ethyl]-amino]-1-naphthalenol], in data set [1], the maximum plasma concentration (Cmax) was 0.215 ng/mL and the “time of maximum plasma concentration” value is 16 h.

Consider `CCCN(CCc1cccs1)[C@H]1CCc2c(O)cccc2C1` [rotigotine.HCl, rotigotine hydrochloride], for which, in data set [2], the “average drug plasma levels” value was “around 0.15 ng/mL”. Further, the “effect of addition of NaCl on solubility” value in data set [3] (68 mM NaCl, results by Nugroho) is reported as “reduced tremendously”. Besides, the Solubility in data set [3] (pH 4, 68 mM NaCl) is 6.75 µmol/mL; in data set [3] (pH 4, no NaCl) it was 24.39^a,b μmol/ml; in data set [3] (pH 5, 68 mM NaCl) it was 6.35 µmol/mL; in data set [3] (pH 5, no NaCl, hydrochloride), 22.4 µmol/mL; in data set [3] (pH 5, no NaCl, listed as Rotigotine•HCl, hydrochloride) it was 22.45^a,b μmol/ml; in data set [3] (pH 6, 68 mM NaCl) it was 6.52 µmol/mL. In addition, the Solubility in data set [3] (pH 6, no NaCl) is 15.87^b μmol/ml. Besides, in data set [3] (pH 5, in the presence of 0.07 molar NaCl, previous attempts), the maximum solubility is 6.3 mM. Further, in data set [4], the maximum iontophoretic flux was 80.2±14.4 nmol·cm^−2·h^−1. For the same molecule, in data set [4], the transport number was 0.4%.
